Patent publication US20260250318A1, “COMPOSITIONS AND METHODS FOR CROSSING THE BLOOD BRAIN BARRIER” (VOYAGER THERAPEUTICS, INC., priority 2022, published 2026)

Tested on: brains, heart, liver, muscle, and DRG of the NHPs
Test: Maturation of TTM-001 and TTM-002 capsids, NGS enrichment in NHP tissues
Assay type: in vivo
Text: This Example describes maturation of the AAV9 capsid variants, TTM-001 (SEQ ID NO: 981 (amino acid) and 983 (DNA), comprising SEQ ID NO: 941 (encoded by SEQ ID NO: 942)) and TTM-002 (SEQ ID NO: 982 (amino acid) and 984 (DNA), comprising SEQ ID NO: […] (encoded by SEQ ID NO: 944)) in NHPs to further enhance their transduction and biodistribution in the central nervous system as well as other tissues, and evolve the AAV capsid variants to provide further cross-species compatibility. Two approaches were used to mature the TTM-001 and TTM-002 capsid sequences in order to randomize and mutate within and around the peptide insert comprised within loop IV of the capsid variant. […] In the first maturation approach, sets of three contiguous amino acids were randomized across the mutagenesis region in the TTM-001 and TTM-002 sequences, which spanned from position 450 to position 466, numbered according to SEQ ID NO: 981 and 982. In the second maturation approach, mutagenic primers were used to introduce point mutations at a low frequency, scattered across the mutagenesis region in the TTM-001 and TTM-002 sequences ranging from position 449 to position 466, numbered according to SEQ ID NO: 981 and 982. AAV capsid variants arising from each maturation approach for TTM-001 and TTM-002 were pooled together, for subsequent testing and characterization in NHPs.
The library of pooled matured AAV capsid variants generated using the first maturation approach and the second maturation approach for the TTM-001 and TTM-002 AAV capsid variants were injected into two NHPs. […] Following RNA recovery and RT-PCR amplification, a systematic NGS enrichment analysis was performed to calculate the fold enrichment ratio relative to an AAV9 control, and the peptides comprised within the variants were identified.
Following the RNA recovery and NGS analysis from the second maturation approach, approximately 680,000 capsid variants were identified. The 680,000 matured capsid variants were then filtered based on samples with a raw virus count greater than 10 and a coefficient of variance (CV) of less than 1, which was calculated for each peptide across the brain samples taken from the two NHPs. […] Using this filtering criteria, this led to approximately 64,000 matured capsid variants.

[1] = NHP DRG, NGS, relative to AAV9 control
[2] = NHP brain, NGS, relative to AAV9 control
[3] = NHP heart, NGS, relative to AAV9 control
[4] = NHP liver DNA, NGS, relative to AAV9 control
[5] = NHP liver RNA, NGS, TTM-001 and TTM-002 matured AAV capsid variants, relative to AAV9 control
[6] = NHP muscle, NGS, relative to AAV9 control

Sequence	Fold Enrichment relative to AAV9, DRG (NHP) [1]	Fold Enrichment relative to AAV9, Brain (NHP) [2]	Fold Enrichment relative to AAV9, Heart (NHP) [3]	Fold Enrichment relative to AAV9, Liver DNA (NHP) [4]	Fold Enrichment relative to AAV9, Liver RNA (NHP) [5]	Fold Enrichment relative to AAV9, Muscle (NHP) [6]	Fold Enrichment relative to AAV9, DRG (NHP) (NGS fold-enrichment, DRG, NHP, relative to AAV9)	Fold Enrichment relative to AAV9, Brain (NHP) (NGS fold-enrichment, brain, NHP, relative to AAV9)	Fold Enrichment relative to AAV9, Heart (NHP) (NGS fold-enrichment, heart, NHP, relative to AAV9)	Fold Enrichment relative to AAV9, Liver DNA (NHP) (NGS fold-enrichment, liver DNA, NHP, relative to AAV9)	Fold Enrichment relative to AAV9, Liver RNA (NHP) (NGS fold-enrichment, liver RNA, NHP, relative to AAV9)	Fold Enrichment relative to AAV9, Muscle (NHP) (NGS fold-enrichment, muscle, NHP, relative to AAV9)
KTINGSGSPHSKVRMQQT	0.000 fold	0.000 fold	0.000 fold	1.835 fold	11.572 fold	0.000 fold						
KTINGSGSPHSKAQTCRT	0.000 fold	0.000 fold	0.000 fold	6.369 fold	26.472 fold	0.000 fold						
KTINGSGSPHSKLCTQQT	0.000 fold	0.000 fold	0.000 fold	1.269 fold	18.674 fold	0.000 fold						
KTINGSGSPHSKAQRFKT	0.000 fold	0.000 fold	0.000 fold	0.139 fold	30.363 fold	0.000 fold						
KTINGSGSPHSKAFYRQT	0.000 fold	0.000 fold	0.000 fold	3.577 fold	77.541 fold	0.000 fold						
KTINGSGSPHSKAQCLKT	0.000 fold	0.000 fold	0.000 fold	1.453 fold	49.565 fold	0.000 fold						
KTINGSGSPHSYAFNQQT	0.000 fold	0.000 fold	0.000 fold	1.742 fold	43.037 fold	0.000 fold						
KTINGSGSPHRIKQNQQT	0.000 fold	0.000 fold	0.000 fold	3.064 fold	21.720 fold	0.000 fold						
KTINGSSSPHRCAQNQQT (peptide inserted in AAV capsid)	0.000 fold	0.000 fold	0.000 fold	1.829 fold	28.887 fold	0.000 fold						
KTINGSGSPHSKRHRQQT	0.000 fold	0.000 fold	0.000 fold	4.648 fold	73.225 fold	0.000 fold						
KTINGSGSPHSKKTSQQT	0.000 fold	0.000 fold	0.000 fold	1.344 fold	15.244 fold	0.000 fold						
KTINGSGSPHSKACRLQT	0.000 fold	0.000 fold	0.000 fold	6.537 fold	12.297 fold	0.000 fold						
KTINGSGSPHSKCTSQQT							0.232 fold	0.493 fold	1.413 fold	5.821 fold	10.311 fold	2.353 fold
KSRRGSGSPHSKAQNQQT	0.000 fold	0.000 fold	0.000 fold	1.446 fold	16.131 fold	0.000 fold						
KTINGSGSPHRWLQNQQT	0.000 fold	0.000 fold	0.000 fold	6.882 fold	28.147 fold	0.000 fold						
KYVFGSGSPHSKAQNQQT (peptide inserted in AAV capsid)	0.000 fold	0.000 fold	0.000 fold	2.346 fold	22.232 fold	0.000 fold						
KTINGSGSPHSKTRKQQT	0.000 fold	0.000 fold	0.000 fold	2.858 fold	36.010 fold	0.000 fold						
KTINGSGSPHSKMPCQQT	0.000 fold	0.000 fold	0.000 fold	1.063 fold	15.343 fold	0.000 fold						
KTINGSGSPHSKWGLQQT	0.000 fold	0.000 fold	0.000 fold	2.639 fold	17.543 fold	0.000 fold						
KTINGSGSPHSFRYNQQT	0.000 fold	0.000 fold	0.000 fold	4.148 fold	21.097 fold	0.000 fold						
